Assays:
[1] = molecular target: T1, Disintegrin and metalloproteinase domain-containing protein 17 (Homo sapiens, UniProt P78536); experiment: Inhibition of Tumor necrosis factor-alpha (TNF-alpha) release in human whole blood; format: functional, tissue-based
Interstitial collagenase = molecular target: T2, Interstitial collagenase (Homo sapiens, UniProt P03956); experiment: In vitro inhibition of matrix metalloprotease-1.
T2 sequence (P03956 whole entry): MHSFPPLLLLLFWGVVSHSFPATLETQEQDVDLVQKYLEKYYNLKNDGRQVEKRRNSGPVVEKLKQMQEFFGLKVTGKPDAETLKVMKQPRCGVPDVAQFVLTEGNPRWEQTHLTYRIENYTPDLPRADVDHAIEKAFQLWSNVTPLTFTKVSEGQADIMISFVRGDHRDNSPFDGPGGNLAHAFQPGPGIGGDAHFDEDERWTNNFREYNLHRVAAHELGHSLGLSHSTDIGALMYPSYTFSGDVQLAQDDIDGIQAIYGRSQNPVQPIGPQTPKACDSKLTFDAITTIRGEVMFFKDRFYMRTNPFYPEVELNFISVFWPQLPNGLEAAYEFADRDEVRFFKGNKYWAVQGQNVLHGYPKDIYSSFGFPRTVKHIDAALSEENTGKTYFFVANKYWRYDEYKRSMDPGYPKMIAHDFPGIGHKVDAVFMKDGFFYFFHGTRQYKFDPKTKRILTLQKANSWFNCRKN

Collagenase 3 = Collagenase 3 (Homo sapiens, UniProt P45452); experiment: In vitro inhibition of matrix metalloprotease-13.
[2] = molecular target: T1, Disintegrin and metalloproteinase domain-containing protein 17; experiment: Inhibition of human recombinant tumor necrosis factor-alpha converting enzyme.
[3] = Pharmacokinetic property (Vdss) in rat; format: ADME, organism-based; details: in vivo, read-out: Vdss
[4] = (§1) Pharmacokinetic property (Clp) in rat; format: ADME, organism-based; details: plasma, read-out: Clp
[5] = Half life in rat i.v.; format: ADME, organism-based; details: in vivo, iv
Rattus norvegicus [6] = species on record: Rattus norvegicus; experiment: Concentration required for TNF-alpha production in an acute rat LPS-induced model; format: functional
Rattus norvegicus [7] = species on record: Rattus norvegicus; experiment: as §1; format: ADME, organism-based; details: in vivo
[8] = Half in rat i.v.; format: ADME, organism-based; details: in vivo, iv
Rattus norvegicus [9] = experiment: Inhibition of TNF-alpha production in an acute rat LPS-induced model at the dose of 30 mg/kg; format: functional

T1 sequence (P78536 whole entry, the tested form may be a part): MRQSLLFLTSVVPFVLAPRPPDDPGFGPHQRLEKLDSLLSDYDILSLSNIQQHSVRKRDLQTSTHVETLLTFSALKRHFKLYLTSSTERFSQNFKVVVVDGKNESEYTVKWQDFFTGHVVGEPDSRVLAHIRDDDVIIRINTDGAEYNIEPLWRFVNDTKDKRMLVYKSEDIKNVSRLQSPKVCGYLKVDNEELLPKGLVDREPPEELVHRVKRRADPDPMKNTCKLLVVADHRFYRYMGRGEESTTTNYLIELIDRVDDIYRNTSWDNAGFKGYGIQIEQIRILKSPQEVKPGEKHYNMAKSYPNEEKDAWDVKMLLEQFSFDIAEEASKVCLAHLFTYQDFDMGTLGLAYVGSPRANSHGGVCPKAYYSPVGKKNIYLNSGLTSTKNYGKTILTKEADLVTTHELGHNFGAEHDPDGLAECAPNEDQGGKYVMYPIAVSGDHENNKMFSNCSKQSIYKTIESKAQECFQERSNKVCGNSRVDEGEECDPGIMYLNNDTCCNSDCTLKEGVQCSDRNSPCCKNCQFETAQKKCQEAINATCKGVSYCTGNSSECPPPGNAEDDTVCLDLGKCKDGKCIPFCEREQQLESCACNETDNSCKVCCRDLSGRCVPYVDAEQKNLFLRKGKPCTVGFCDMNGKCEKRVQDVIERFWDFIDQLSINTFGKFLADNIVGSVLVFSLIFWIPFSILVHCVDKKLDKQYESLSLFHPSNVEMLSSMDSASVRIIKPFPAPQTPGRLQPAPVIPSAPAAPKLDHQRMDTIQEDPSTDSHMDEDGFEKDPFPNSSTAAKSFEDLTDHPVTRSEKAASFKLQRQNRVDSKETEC

IC50 (Interstitial collagenase)	IC50 (Collagenase 3)	Vd [3]	clearance [4]	half-life [5]	Clp (Rattus norvegicus [7])	half-life [8]	SMILES	IC50 [1]	IC50 [2]	ED50 (Rattus norvegicus [6])	inhibition in vivo at 30 mg/kg (Rattus norvegicus [9])
1.5 µM	0.006 µM						CCOC(=O)N1CCN(S(=O)(=O)c2ccc(OCc3ccccc3C)cc2)[C@@H](C(=O)NO)[C@@H]1C	3 µM	0.028 µM		
0.83 µM	0.017 µM						CC(=O)N1CCN(S(=O)(=O)c2ccc(OCc3ccnc4ccccc34)cc2)[C@@H](C(=O)NO)[C@@H]1C	0.3 µM			
6.7 µM	0.04 µM						CCc1ccccc1COc1ccc(S(=O)(=O)N2CCN(C(C)=O)[C@@H](C)[C@@H]2C(=O)NO)cc1	0.6 µM	0.007 µM		
12 µM	0.011 µM						C[C@@H]1NCCN(S(=O)(=O)c2ccc(OCc3ccccc3)cc2)[C@H]1C(=O)NO	18 µM			
		0.6 L/kg	54 mL/min/kg	16.2 min			CC(=O)N1CCN(S(=O)(=O)c2ccc(OCc3ccccc3C)cc2)[C@@H](C(=O)NO)[C@@H]1C	1 µM	0.006 µM	17 mg/kg	
1.3 µM	0.004 µM	2.1 L/kg			98 mL/min/kg	12.6 min	Cc1ccccc1COc1ccc(S(=O)(=O)N2CCN(S(C)(=O)=O)[C@@H](C)[C@@H]2C(=O)NO)cc1	1 µM	0.006 µM		55%
2.2 µM							Cc1ccccc1COc1ccc(S(=O)(=O)N2CCN(C(=O)Nc3ccccc3)[C@@H](C)[C@@H]2C(=O)NO)cc1	12 µM	0.026 µM		
1.4 µM	0.004 µM						Cc1ccccc1COc1ccc(S(=O)(=O)N2CCN(C(=O)NC(C)C)[C@@H](C)[C@@H]2C(=O)NO)cc1	3 µM	0.034 µM		
							Cc1ccc(S(=O)(=O)N2CCN(S(=O)(=O)c3ccc(OCc4ccccc4C)cc3)[C@@H](C(=O)NO)[C@@H]2C)cc1	26 µM	0.032 µM		
3.8 µM	0.02 µM						CC(=O)N1CCN(S(=O)(=O)c2ccc(OCc3cc(F)cc(F)c3)cc2)[C@@H](C(=O)NO)[C@@H]1C	1 µM	0.006 µM		
12 µM	0.019 µM	1.1 L/kg	83 mL/min/kg	14.4 min			Cc1ccccc1COc1ccc(S(=O)(=O)N2CCN[C@@H](C)[C@@H]2C(=O)NO)cc1	2 µM			39%
1.9 µM	0.007 µM						CC(=O)N1CCN(S(=O)(=O)c2ccc(OCc3cc(F)ccc3C)cc2)[C@@H](C(=O)NO)[C@@H]1C	1 µM	0.007 µM		
0.052 µM	0.113 µM						C#CCOc1ccc(S(=O)(=O)N(C)c2c(C)cc(Br)cc2C(=O)NO)cc1				
10 µM	0.127 µM						CC(=O)N1CCN(S(=O)(=O)c2ccc(OCc3ccccc3C(F)(F)F)cc2)[C@@H](C(=O)NO)[C@@H]1C	2 µM	0.011 µM		
							Cc1ccccc1COc1ccc(S(=O)(=O)N2CCN(C)[C@@H](C)[C@@H]2C(=O)NO)cc1	33 µM	0.031 µM		
1.5 µM	0.004 µM						COC(=O)N1CCN(S(=O)(=O)c2ccc(OCc3ccccc3C)cc2)[C@@H](C(=O)NO)[C@@H]1C	2 µM	0.014 µM		

SMILES	IC50 (Interstitial collagenase)	IC50 (Collagenase 3)	Vd [3]	clearance [4]	half-life [5]	Clp (Rattus norvegicus [7])	half-life [8]	IC50 [1]	IC50 [2]	ED50 (Rattus norvegicus [6])	inhibition in vivo at 30 mg/kg (Rattus norvegicus [9])
CC(=O)N1CCN(S(=O)(=O)c2ccc(OCc3cccnc3C)cc2)[C@@H](C(=O)NO)[C@@H]1C	3.4 µM	0.008 µM						0.8 µM	0.005 µM		
CC(=O)N1CCN(S(=O)(=O)c2ccc(OCc3ccc(F)cc3)cc2)[C@@H](C(=O)NO)[C@@H]1C	1.7 µM	0.003 µM						2 µM	0.006 µM		
CC[C@H](C)[C@H](NC(=O)C(CC(C)C)[C@H](C(C)C)N(O)C=O)C(=O)Nc1ccccn1 (stereo partly specified)	0.019 µM	0.007 µM							0.04 µM		
CC(=O)N1CCN(S(=O)(=O)c2ccc(OCc3cncc4ccccc34)cc2)[C@@H](C(=O)NO)[C@@H]1C	6.4 µM	0.098 µM						0.4 µM			
Cc1ccccc1COc1ccc(S(=O)(=O)N2CCN(Cc3ccccc3)[C@@H](C)[C@@H]2C(=O)NO)cc1	17 µM							33 µM	0.068 µM		
